ChEMBL document CHEMBL1158260, “Six lignans from Phyllanthus myrtifolius” (J Nat Prod, 1996)
One block for each compound: values may come before it. The source made the active and inactive calls. No cut-off for these calls is given here.

Legend:
[1] = molecular target: Human immunodeficiency virus type 1 reverse transcriptase (Human immunodeficiency virus 1) (UniProt Q72547); experiment: (§1) Inhibition of HIV1 reverse transcriptase
[2] = molecular target: Human immunodeficiency virus type 1 reverse transcriptase (Human immunodeficiency virus 1) (UniProt Q72547); experiment: Inhibition of HIV1 reverse transcriptase at 10 uM
[3] = molecular target: Human immunodeficiency virus type 1 reverse transcriptase (Human immunodeficiency virus 1, UniProt Q72547); experiment: as §1
[4] = Inhibition of human DNA polymerase alpha
[5] = molecular target: Human immunodeficiency virus type 1 reverse transcriptase (Human immunodeficiency virus 1) (UniProt Q72547); experiment: Increase in HIV1 reverse transcriptase activity at 1.89 uM
[6] = molecular target: Human immunodeficiency virus type 1 reverse transcriptase (Human immunodeficiency virus 1) (UniProt Q72547); experiment: Increase in HIV1 reverse transcriptase activity at 18.9 uM relative to control

Activity [1]: inactive
Compound: COc1cc2c(O[C@@H]3O[C@H](CO)[C@@H](O)[C@H](O)[C@H]3O)c(CO)c(CO)c(-c3ccc4c(c3)OCO4)c2cc1OC

Activity [1]: inactive
Compound: COc1cc(-c2c(C)c(CO)c(O[C@@H]3O[C@H](CO)[C@@H](O)[C@H](O)[C@H]3O)c3cc(OC)c(OC)cc23)ccc1O

Continued, compound first:

Compound: COc1cc2cc3c(c(-c4ccc5c(c4)OCO5)c2cc1OC)C(=O)OC3OC (centres undefined)
inhibition [2]: 20%

Compound: COCc1cc2cc(OC)c(OC)cc2c(-c2ccc3c(c2)OCO3)c1C=O [PHYLLAMYRICIN B]
IC50 [3]: 3.5 µM | IC50 [4]: 289 µM

Compound: COc1cc2c(O[C@@H]3O[C@H](CO)[C@@H](O)[C@H](O)[C@H]3O)c(CO)c(C)c(-c3ccc4c(c3)OCO4)c2cc1OC
Activity [5]: 210% | Activity [6]: 65%

Compound: COc1cc2cc3c(c(-c4ccc5c(c4)OCO5)c2cc1OC)COC3=O [RETROJUSTICIDIN B]
IC50 [3]: 5.5 µM | IC50 [4]: 989 µM
